Results on 2 compounds are retold here after patent US20120251495A1, “PTERIN BASED THERAPIES FOR INFLAMMATORY CONDITIONS” (priority 2008, published 2012).

A word on the T/C: it is the result in the treated group divided by that in the control group, in per cent. As usually defined, the IC50 is the concentration at which inhibition is half-maximal.

Assay [1] has as its system plasma cytokines. The assay is described as follows: Plasma cytokine levels (multiplex and single ELISA kits), 2nd experiment. The class given is in vivo, athymic nude mice. Particulars: for IL-5: limit of detection 3.0; for IFN-γ / IL-12 / IL-4: limit of detection 3.2; for IL-1β: limit of detection 4.1; for IL-6: limit of detection 3.9. As for the experimental part: Cytokine levels in EDTA plasma from the mice in the 2nd experiment were measured at the UCSD Core Laboratory (San Diego, Calif.) using a multiplex assay kit for IL-1β, IL-2, IL-4, IL-5, IL-10, IL-12, IFN-γ, TNF-α and single ELISA kits for IL-6 and TGF-β1 by R&D Systems. […] For both the 1st and 2nd experiments, those measured cytokine values falling below the limits of detection were set to the higher assay limit for the purposes of the subsequent statistical analyses, and recorded as n.d. (not detectable) in Tables 1 through 3.

For assay [2], the system named is MDA-MB-231 human breast tumor xenographs. The assay is described as follows: Antitumor efficacy in nude mice with MDA-MB-231 xenographs, 2nd experiment. Type of assay: in vivo, athymic nude mice.
Method: In the 2nd experiment, twenty-nine athymic nude, also purchased from Harlan Sprague Dawley, Inc. (Indianapolis, Ind.), were each injected subcutaneously with 10×10^6 MDA-MB-231 cancer cells into the right flank. When tumors reached 3-5 mm in size, the mice were divided into five treatment groups of five each and a control group of four mice. […] All the other mice in the 2nd experiment persisted ≧43 days without complications. Experimental groups were treated by oral gavage once daily with the indicated test suspensions or solutions.
Assay [3] deals with indoleamine 2,3-dioxygenase (IDO). In words: Plasma tryptophan and kynurenine by HPLC (IDO activity), 1st experiment. The class given is in vivo, athymic nude (nu/nu) mice. The conditions noted are these: for Kynurenine / Tryptophan / Kyn/Trp: plasma; for Kynurenine / Tryptophan: HPLC; for Kyn/Trp: estimate of IDO activity. As for the experimental part:
Cytokine levels in EDTA plasma from the mice in the 1st experiment were determined by ELISA assay at Alta Analytical Laboratories (San Diego, Calif.) using a LINCOplex Kit (Linco Research). Tryptophan (Trp) and kynurenine (Kyn) concentrations were measured from EDTA plasma samples by high pressure liquid chromatography (HPLC) using 3-nitro-L-tyrosine as the internal standard (Widner et al., 1997). To estimate IDO activity, the kynurenine to tryptophan ratio (Kyn/Trp) was calculated and expressed as μmol kynurenine/mmol tryptophan (Wirleitner, 2003). The values from five mice in the 1st experiment are not included in the summary statistics given in Table 1 for the following reasons. One mouse from each of the four treatment groups was used to test the effects of mega dosing, i.e., with (1:4 mol:mol) calcium pterin at 100 mg/kg/day after Day 60 of treatment, and are excluded. Also excluded was one mouse from the (1:4 mol:mol) calcium pterin (7 mg/kg/day) group which expired suddenly a few days before blood was collected. Cytokine measurements <3.2 pg/ml are reported as n.d. (not detectable) because the standard curves used in the ELISA assays were not calibrated below that level.

In assay [4] the test system is MDA-MB-231 human breast tumor xenographs. In words: Antitumor efficacy in nude mice with MDA-MB-231 xenographs, 1st experiment. Type of assay: in vivo, athymic nude (nu/nu) mice. Particulars: for Day 60 Rel Tum Vol: mean ± SEM. On the procedure:
The aims of the 1st experiment were to determine a dose-response curve for the (1:4 mol:mol) calcium pterin suspension, to compare the antitumor activity of this suspension to pterin alone (pterin control), and to test the effect of CaPterin mega-dosing at 100 mg/kg/day. Antitumor efficacy was evaluated in nude mice with MDA-MB-231 human tumor xenographs by Perry Scientific (San Diego, Calif.). In the 1st experiment, twenty-three athymic nude (nu/nu) female mice, ages 3-4 weeks, were purchased from Harlan Sprague Dawley, Inc. (Indianapolis, Ind.). 5×10^6 MDA-MB-231 cancer cells were injected subcutaneously into the right flank of each mouse. When tumors reached 3-5 mm in size, twenty mice were divided into four treatment/control groups of five mice each. The four treatment groups were: (1:4 mol:mol) calcium pterin (7 mg/kg/day); pterin (21 mg/kg/day); (1:4 mol:mol) calcium pterin (21 mg/kg/day); and sterile water control. Two mice with outlying tumor sizes or non-tumor takes were excluded shortly after treatment began: one from the pterin group and one from the control group. […] Only one outlier persisted >4 days, for 14 days. Also excluded from the metabolic analysis in the 1st experiment was one mouse from each of the four experimental groups mega-dosed by oral gavage with 100 mg/kg/day CaPterin for tip to 31 days to test for toxicity. All the other mice in the 1st experiment persisted ≧60 days without complications.
The control mice in the 1st experiment were treated with sterile water while the control mice in the 2nd experiment were untreated to evaluate the effect of mouse handling and gavaging upon tumor growth. Daily dosing was for 7 days per week. Animals were restrained but not anesthetized for oral dosing. Tumors were measured twice weekly with calipers and body weights taken twice weekly on the day of tumor measurements. Blood was collected from all animals via cardiac puncture at termination (after 70 to 98 days of treatment) and processed to EDTA plasma for analysis. Tumor size measurements for the control group in the 2nd experiment on days 4 and 7 were missed due to a technical oversight.
The MDA-MB-231 human breast tumor cell lines were supplied by SRI International (Menlo Park, Calif.) and propagated using standard in vitro cell expansion methods. Briefly, cells were grown in L-15 media from Gibco (Cat. No. 11415-064) supplemented with 2 mM L-Glutamine and 10% Fetal Bovine Serum (FBS). The cells were cultured in an incubator with 5% CO2, 37.5° C., and 80% humidity. Cells were harvested with 0.25% (w/v) Trypsin-0.03% (w/v) EDTA solution. Cells were prepared for injection by standard methods to appropriate concentrations. Animals were temporarily restrained but not anesthetized for the inoculation of the tumor cells. Animals were subcutaneously injected with the tumor cells in a 100-200 μl volume.
Each animal was individually tracked for tumor growth by external caliper measurements of protruding tumor. Primary tumor sizes were measured using calipers and an approximate tumor volume calculated using the formula 1/2 (a×b^2), where b was the smaller of two perpendicular diameters.
For each group, the mean and standard error of the mean (SEM) of the ratio V/Vo, Relative Tumor Volume (RTV), were plotted as a function of treatment time after inoculation. V0 was the tumor volume at Day 0, when treatment began.

For assay [5], the target named is T1, IDO (Homo sapiens, UniProt P14902).
T1 construct: endogenous in cells; host or cells: human PBMCs (peripheral blood mononuclear cells), unstimulated or PHA-stimulated
T1 sequence (P14902 whole entry): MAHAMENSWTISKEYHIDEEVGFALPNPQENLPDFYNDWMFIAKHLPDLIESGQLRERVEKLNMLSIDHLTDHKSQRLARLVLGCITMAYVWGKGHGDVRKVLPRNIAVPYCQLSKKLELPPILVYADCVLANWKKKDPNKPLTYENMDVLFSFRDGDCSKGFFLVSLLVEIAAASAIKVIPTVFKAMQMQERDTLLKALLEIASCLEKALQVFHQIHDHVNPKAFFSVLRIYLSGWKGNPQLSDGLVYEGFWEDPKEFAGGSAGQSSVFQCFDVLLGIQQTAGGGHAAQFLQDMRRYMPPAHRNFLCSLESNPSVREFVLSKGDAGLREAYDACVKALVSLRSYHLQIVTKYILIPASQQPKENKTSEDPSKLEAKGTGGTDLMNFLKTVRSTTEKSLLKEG
In words: IDO inhibition in vitro with human PBMCs (kynurenine production). Type of assay: cell-based. As for the experimental part:
The purpose of this in vitro study was to measure the IC50 values of IDO in PBMCs for 1) calcium pterin, CaCl2, and pterin to determine measurable synergistic effects between Ca^+2 and pterin, and 2) to compare these values with those of DCP for the assessment of relative IDO inhibitory strength. IC50 (μM) values for IDO inhibition by (1:4 mol:mol) calcium pterin, DCP, CaCl2, and pterin were determined in vitro with human PBMCs (both PHA-stimulated and unstimulated) by measuring kynurenine production as previously described (Winkler et al., 2006).

For the compound (1:4 mol:mol) calcium pterin [CaPterin], in assay [1] (2nd experiment, 21 mg/kg/d), the IL-5 came out at 8.2 ± 1.4 pg/mL, the IFN-γ was 6.2 ± 2.4 pg/mL, the IL-12 was determined as 721.6 ± 19.1 pg/mL and the IL-1β is 5.0 ± .7 pg/mL. This compound came in with an IL-6 in assay [1] (2nd experiment, 21 mg/kg/d, plasma at sacrifice) of 30.3 ± 10.2 pg/mL. Besides, the “increases in plasma IL-12 (FIG. 10)” value in assay [1] (at the dosages tested) is listed as “lower, non-significant increases”. In assay [2] (21 mg/kg/day, after 43 days), this compound registered a T/C of 37%. Further, in assay [3] (7 mg/kg/day), the Kynurenine stood at 1.2 ± 0.2 µM, the Tryptophan stood at 87.9 ± 14.6 µM and the Kyn/Trp is 14.1 ± 0.2 μmol/mmol. For the same compound, in assay [3] (21 mg/kg/day), the Kynurenine came out at 1.8 ± 0.3 µM, the Tryptophan amounted to 106.5 ± 7.8 µM and the Kyn/Trp is listed as 17.5 ± 3.8 μmol/mmol. In addition, the “plasma kynurenine response to dosage (ACIP model)” value in assay [3] (stepwise regression) is recorded as “increase”. For the same compound, the “antitumor activity (tumor growth vs control)” value in assay [4] (7 mg/kg/day) is reported as “non-significant”. Also, the “Day 60 Rel Tum Vol” value in assay [4] (7 mg/kg/day oral) turned out to be 24.0 ± 9.0. Besides, the “antitumor activity (tumor growth vs control)” value in assay [4] (21 mg/kg/day) is “significantly inhibits”. Moreover, the “Day 60 Rel Tum Vol” value in assay [4] (21 mg/kg/day oral) worked out at 7.9 ± 1.3. Moreover, in assay [4] (21 mg/kg/day, after 60 days), the “T/C ratio (mean treatment tumor volume to mean control tumor volume)” value is reported as 41%. In addition, in assay [4] (n=14, p=0.005), the “Spearman rank order correlation rs, Day 60 Relative Tumor Volume versus dose” value stood at 0.70.

In assay [1] (2nd experiment, 23 mg/kg/d), `Nc1nc([O-])c2nccnc2n1.Nc1nc([O-])c2nccnc2n1.[Ca+2]` [DCP, dipterinyl calcium pentahydrate] gave an IL-5 of 20.3 ± 10.2 pg/mL, an IFN-γ of 15.2 ± 4.9 pg/mL, an IL-4 of 5.7 ± 1.7 pg/mL and an IL-12 of 1141.7 ± 327.1 pg/mL. Moreover, in assay [1] (2nd experiment, 23 mg/kg/d), the IL-6 was 49.6 ± 18.5 pg/mL and the IL-1β is 6.2 ± .8 pg/mL. In addition, the IL-2 in assay [1] (2nd experiment, 23 mg/kg/d, limit of detection 12.6) is 12.7 ± .11 pg/mL. In assay [1] (2nd experiment, 23 mg/kg/d, limit of detection 24.6), this compound showed an IL-10 of 37.0 ± 12.4 pg/mL. Further, in assay [1] (2nd experiment, 69 mg/kg/d), the IL-5 worked out at 24.9 ± 17.0 pg/mL, the IFN-γ turned out to be 29.9 ± 18.0 pg/mL, the IL-4 is 4.0 ± .6 pg/mL and the IL-12 was 1050.52 ± 238.7 pg/mL. Also, in assay [1] (2nd experiment, 69 mg/kg/d), the IL-6 came out at 37.0 ± 11.3 pg/mL and the IL-1β was 5.3 ± .7 pg/mL. In assay [1] (2nd experiment, 69 mg/kg/d, limit of detection 31.2), the TGF-β1 was 49.5 ± 18.3 pg/mL. Further, the IC50 in assay [5] (PHA stimulated per Table 3) was determined as 320 µM. In addition, in assay [5] (unstimulated per Table 3), the IC50 turned out to be 470 µM. Also, the “MDA-MB-231 xenograph growth inhibition” value in assay [2] ((1:2) 25, DCP 23 and 69, calcium chloride dihydrate 4.2 mg/kg/day) is reported as “significantly inhibit”.
